The values below come from patent US12239643B2, “Therapeutic agent for inflammatory diseases, autoimmune diseases, fibrotic diseases, and cancer diseases” (MEIJI SEIKA PHARMA CO., LTD., priority 2018, dated 2025).

The structures appear in SMILES notation. Some results are limits rather than exact numbers.

One assay has as its system Daoy (brain tumor). In words: Antitumor activity: growth inhibition of Daoy. It is filed as cell-based. The note with it: Homo sapiens, 120 h, culturing for 5 days, read-out: 50% growth inhibitory concentration. How it is done: (§1) As antitumor activity, 50% growth inhibitory concentration of various cancer cells (CEM-C1 (blood cancer (leukemia)), SU-DHL-4 (blood cancer (lymphoma)), A549 (lung cancer), HCT-116 (colorectal cancer), and Daoy (brain tumor)) was calculated as follows. First, each of the above cancer cells was seeded on a 384-well plate and cultured overnight at 37° C. under 5% CO2. After that, the test compound was added at various concentrations on the next day, and each number of cells was measured after culturing for 5 days. The 50% growth inhibitory concentration was defined as the test compound concentration at which the number of cells measured is an intermediate value between the number of cells after culture for 5 days under the same conditions without the addition of the test compound and the number of cells at the time of seeding (before the start of culture). The measurement results obtained by measuring the 50% growth inhibitory concentration of the test compound by the above method were evaluated in accordance with the following evaluated basis; A: less than 10 μM, B: 10 μM or more and less than 50 μM, and C: 50 μM or more. As a result of using apremilast as the test compound, the evaluation was C in all cancer cells. On the other hand, as a result of using the compound obtained in Example 248 as the test compound, the evaluation was A in all cancer cells.

The test system of assay [1] is HCT-116 (colorectal cancer). In words: Antitumor activity: growth inhibition of HCT-116. The following applies: Homo sapiens, 120 h; HCT-116, culturing for 5 days; read-out: 50% growth inhibitory concentration. It is filed as cell-based. How it is done:
as §1

Another assay has as its system IL-17A. As to the kind of experiment: Cytokine suppression using whole human blood: IL-17A (phytohaemagglutinin stimulus). It is filed as cell-based. The following applies: read-out: IL-17A Inhibitory Activity, Human Whole Blood (Test Example 3). How it is done: The test compound dissolved in dimethyl sulfoxide was added to a 96-well plate, and RPMI-1640 medium and human peripheral blood containing sodium heparin were added, followed by culture at 37° C. under 5% CO2 for 1 hour. A medium containing only dimethyl sulfoxide instead of the test compound was added to the control well. […]
After collecting the culture supernatant after culturing, the amount of each cytokine was measured by the sandwich ELISA method. […]
The measurement results obtained by measuring the TNFα inhibitory activity and IL-5 inhibitory activity (50% inhibitory concentration) of the test compounds by the above method were evaluated in accordance with the following evaluated basis; A: less than 100 nM, B: 100 nM or more and less than 500 nM, and C: 500 nM or more. In addition, the measurement results obtained by measuring the IL-17A inhibitory activity and IL-4 inhibitory activity (50% inhibitory concentration) of the test compounds were evaluated in accordance with the following evaluated basis; A: less than 500 nM, B: 500 nM or more and less than 5000 nM, and C: 5000 nM or more.

The test system of assay [2] is type II collagen-induced arthritis, DBA-1 JNCrlj mice. As to the kind of experiment: Mouse CIA (arthritis) model. The note with it: oral, day 31 after the initial sensitization of type II collagen. It is filed as in vivo. How it is done:
Evaluation was carried out using male DBA-1 JNCrlj mice (6 to 8 weeks of age). First, 150 μg/0.1 mL of type II collagen (bovine)/ACF emulsion was intradermally administered to the mouse ridge to cause primary sensitization. Twenty-one days later, 100 μg/0.1 mL of type II collagen (bovine)/AIF emulsion was similarly intradermally administered to the ridge to cause secondary sensitization. Note that, in the blank group, saline was intradermally administered to the ridge at the first sensitization and second sensitization. Next, for 10 days from the day of secondary sensitization, 0.1 to 20 mg/kg of the test compound dissolved or suspended in 0.5% w/v methylcellulose (0.5% MC) was orally administered once or twice a day.
The arthritis score of each limb was judged to be 0 to 4 by visual inspection and palpation (0: no symptoms, 1: one finger is red and swollen, 2: two or more fingers or in step is red and swollen, 3: fingers, in step, and heel are red and swollen, 4: movement of joints throughout the limb is poor), and the total of the limbs was used as the individual score, and the average score of the individual group administered with each test compound was calculated and used as the arthritis score. In addition, the foot volume (mL) of the left and right hind limbs was measured using a foot volume measuring device, and the edema rate was calculated by the following formula. Edema Rate (%)={(Left and Right Added Footpad Volume After Sensitization−Left and Right Added Footpad Volume Before Sensitization)/Left and Right Added Footpad Volume Before Sensitization}×100
The arthritis score of each test compound on day 31 after the initial sensitization of type II collagen was evaluated by the above method in accordance with the following evaluated basis; A: less than 2, B: 2 or more and less than 3, and C: 3 or more. In addition, the edema rate of each test compound on day 31 after the initial sensitization of type II collagen was evaluated in accordance with the following evaluated basis; A: less than 10%, B: 10% or more and less than 20%, and C: 20% or more. As a result of using apremilast as the test compound, the arthritis score and the edema rate were both evaluated as B. On the other hand, as a result of using the compound obtained in Example 248 as the test compound, the arthritis score and the edema rate were both evaluated as A.

As to `CC(C)(O)C(F)(F)Oc1ccc(-c2nccs2)c2oc(N3CC4CC(C3)N4)nc12` [Example 248, 1-((2-(3,6-Diazabicyclo[3.1.1]heptan-3-yl)-7-(thiazol-2-yl)benzo[d]oxazol-4-yl)oxy)-1,1-difluoro-2-methylpropan-2-ol], the IC50 in the assay on Daoy (brain tumor) was less than 10 µM; in assay [1], less than 10 µM; in the assay on IL-17A, less than 0.5 µM. Moreover, the arthritis score entry in assay [2] is reported as “A (A: less than 2)”. Moreover, the edema rate entry in assay [2] was “A (A: less than 10%)”.
For `CCOc1cc([C@@H](CS(C)(=O)=O)N2C(=O)c3cccc(NC(C)=O)c3C2=O)ccc1OC` [apremilast, reference compound], the values for the IC50 (with Daoy (brain tumor); in assay [1]; with IL-17A) were no less than 50 µM, no less than 50 µM and no less than 5 µM, respectively. For the same compound, the arthritis score result in assay [2] was “B (B: 2 or more and less than 3)”. Further, in assay [2], the edema rate result is “B (B: 10% or more and less than 20%)”.
